# Source: PubChem BioAssay AID1963835 (Molecular Pharmacology Branch, DTP, NCI, 2024)
# Tested on: 699152-130-R-J1-PDC complex spheroid viability
# Assay: Anticancer human tumor 699152-130-R-J1-PDC patient-derived pancreatic carcinoma cell line growth inhibition [POLQ]
# Conditions: for IC50: curve of first compound; for viability, T/C: stronger effect = lower value
# Method: Multicellular complex tumor spheroid response to Polymerase (POL) inhibitors (novobiocin, ART-558, RP6685) in combination with a variety of drugs and investigational agents in selected tumor cell lines
# The POL inhibitors (novobiocin, ART-558, and RP6685) were evaluated both individually and in combination with standard of care and investigational anticancer small molecules within a complex spheroid model of solid tumors. . Complex spheroids include a stromal component modeled by human endothelial cells (HUVEC) and fibroblasts modeled by human mesenchymal stem cells (MSCs). The concentration ranges selected for each drug and investigational agent were based upon clinically achievable concentrations if the clinical Cmax of the agent was known.
# Compounds. The drugs and investigational agents: novobiocin (NSC847541), ART-558 (NSC835418), RP-6685 (NSC848927), peposertib (NSC802822), ceralasertib (NSC780249), elimusertib (NSC800525), camonsertib (NSC841442), AZD-1390 (NSC803789), olaparib (NSC753686), talazoparib (NSC767125), rucaparib (NSC756644), sotorasib (NSC818433), MRTX-1133 (NSC836407), SN-38 (NSC673596), topotecan (NSC609699), epotoside (NSC141540), doxorubicin (NSC123127), gemcitabine (NSC613327), 5-fluorouracil (NSC19893), paclitaxel (NSC125973), vemurafenib (NSC761431), MSA-2 (NSC828583), SN-011 (NSC837082), adavosertib (NSC754352), prexasertib (NSC758257), carboplatin (NSC241240) and oxaliplatin (NSC266046), were obtained from the National Cancer Institute (NCI) Developmental Therapeutics Program Chemical Repository (21). The FDA-approved anticancer drug set is available from the Developmental Therapeutics Program at https://dtp.cancer.gov/organization/dscb/obtaining/. […] The stock solutions were prepared in dimethyl sulfoxide (DMSO, Sigma-Aldrich, St. Louis, MO, cat. D2650), except for the platinum compounds which were prepared in saline (Quality Biological, Gaithersburg, MD, cat. 114-055-101), at 800-fold the tested concentration and stored at -70 degrees C prior to their use. All drugs and investigational agents were tested over a range starting from a high concentration at or near the clinical Cmax and decreasing in half-log increments. If the clinical Cmax for an agent had not been determined, the highest concentration tested was 10 microM, except for SN-38, which was tested at a high concentration of 1 microM.
# Cell Culture. All cells were maintained in an incubator at 37 degrees C and 5% CO2 with 95% humidity. The PDC lines were cultured according to standard operating procedures established by the NCI PDMR (https://pdmr.cancer.gov). Table 3 of the manuscript, lists the cell lines along with the number of the three cell types plated to form the mct-spheroids and media for tumor cell growth. After thawing, all PDC lines, except 997537-175-T-J1-PDC and 415267-285-R-J2-PDC, were cultured in Matrigel-coated flasks prepared with a working solution of 1X Ham's F-12 nutrient mix, without supplementation (Thermo Fisher Scientific, cat. 11765054), 100 U/mL penicillin-streptomycin (Thermo Fisher Scientific, cat. 15140122), and 2.5% Matrigel (Corning Inc., Corning, NY, cat. 354248) for the first three passages. The two PDC lines 997537-175-T-J1-PDC and 415267-285-R-J2-PDC were cultured on uncoated flasks. The 857933-349-R-J2-PDC line was cultured in 6C/Colon 1B media containing advanced DMEM/F-12 (Thermo Fisher Scientific, cat. 12634028), 10 mM HEPES (Thermo Fisher Scientific, cat. 15630080), 1X GlutaMAX supplement (Thermo Fisher Scientific, cat. 35050061), 0.1 mg/mL primocin (InvivoGen, San Diego, CA, cat. ant-pm-2), 10% defined fetal bovine serum, heat inactivated (HyClone Laboratories Inc., Logan, UT, cat. SH30070.03HI), 50% L-WRN conditioned media (ATCC, cat. CRL-3276), 1.25 mM N-Acetyl-L-cysteine (Sigma-Aldrich, cat. A9165), 10 mM nicotinamide (Sigma-Aldrich, cat. N0636), 1X B-27 supplement (Thermo Fisher Scientific, cat. 17504044), 1X N-2 supplement (Thermo Fisher Scientific, cat. […]
# [1] = second compound 0.0316 µM, first compound 0.0316 µM
# [2] = second compound 0.0316 µM, first compound 0.1 µM
# [3] = second compound 0.0316 µM, first compound 0.316 µM
# [4] = second compound 0.0316 µM, first compound 1 µM
# [5] = second compound 0.0316 µM, first compound 3.16 µM
# [6] = second compound 0.0316 µM, first compound 10 µM
# [7] = second compound 0.1 µM, first compound 0.0316 µM
# [8] = second compound 0.1 µM, first compound 0.1 µM
# [9] = second compound 0.1 µM, first compound 0.316 µM
# [10] = second compound 0.1 µM, first compound 1 µM
# [11] = second compound 0.1 µM, first compound 3.16 µM
# [12] = second compound 0.1 µM, first compound 10 µM
# [13] = second compound 0.316 µM, first compound 0.0316 µM
# [14] = second compound 0.316 µM, first compound 0.1 µM
# [15] = second compound 0.316 µM, first compound 0.316 µM
# [16] = second compound 0.316 µM, first compound 1 µM
# [17] = second compound 0.316 µM, first compound 3.16 µM
# [18] = second compound 0.316 µM, first compound 10 µM
# [19] = second compound 1 µM, first compound 0.0316 µM
# [20] = second compound 1 µM, first compound 0.1 µM
# [21] = second compound 1 µM, first compound 0.316 µM
# [22] = second compound 1 µM, first compound 1 µM
# [23] = second compound 1 µM, first compound 3.16 µM
# [24] = second compound 1 µM, first compound 10 µM
# [25] = second compound 3.16 µM, first compound 0.0316 µM
# [26] = second compound 3.16 µM, first compound 0.1 µM
# [27] = second compound 3.16 µM, first compound 0.316 µM
# [28] = second compound 3.16 µM, first compound 1 µM
# [29] = second compound 3.16 µM, first compound 3.16 µM
# [30] = second compound 3.16 µM, first compound 10 µM
# [31] = second compound 10 µM, first compound 0.0316 µM
# [32] = second compound 10 µM, first compound 0.1 µM
# [33] = second compound 10 µM, first compound 0.316 µM
# [34] = second compound 10 µM, first compound 1 µM
# [35] = second compound 10 µM, first compound 3.16 µM
# [36] = second compound 10 µM, first compound 10 µM
# 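Further: spheroids exposed to agents for 7 days before viability reading.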
# 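Wherever viability, T/C is given: percent of DMSO vehicle control viability so 100% = vehicle and 0% = no viable signal.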
smiles,measurement,setting,value
CC1COCCN1c1cc(-c2ccnn2C)c2ccnc(-c3ccn[nH]3)c2n1 (centres undefined) + Nc1ccc(C#CCN(C(=O)Cc2ncc(C(F)(F)F)cc2C(F)(F)F)c2ccc(F)cc2)nn1,IC50,second compound 0.0316 µM,> 10 µM
same,IC50,second compound 0.1 µM,> 10 µM
same,IC50,second compound 0.316 µM,> 10 µM
same,IC50,second compound 1 µM,6.83 µM
same,IC50,second compound 3.16 µM,> 10 µM
same,IC50,second compound 10 µM,> 10 µM
same,"viability, T/C",[1],88.4%
same,"viability, T/C",[2],91.3%
same,"viability, T/C",[3],80.4%
same,"viability, T/C",[4],63.5%
same,"viability, T/C",[5],52.9%
same,"viability, T/C",[6],50%
same,"viability, T/C",[7],90.9%
same,"viability, T/C",[8],89%
same,"viability, T/C",[9],75.4%
same,"viability, T/C",[10],66.6%
same,"viability, T/C",[11],52.8%
same,"viability, T/C",[12],53.3%
same,"viability, T/C",[13],102%
same,"viability, T/C",[14],90.6%
same,"viability, T/C",[15],75.4%
same,"viability, T/C",[16],58.9%
same,"viability, T/C",[17],48.5%
same,"viability, T/C",[18],53.9%
same,"viability, T/C",[19],101%
same,"viability, T/C",[20],82.8%
same,"viability, T/C",[21],71.4%
same,"viability, T/C",[22],58%
same,"viability, T/C",[23],52.2%
same,"viability, T/C",[24],49.2%
same,"viability, T/C",[25],107%
same,"viability, T/C",[26],92.7%
same,"viability, T/C",[27],75.6%
same,"viability, T/C",[28],55.3%
same,"viability, T/C",[29],47.2%
same,"viability, T/C",[30],57%
same,"viability, T/C",[31],114%
same,"viability, T/C",[32],94.3%
same,"viability, T/C",[33],80.9%
same,"viability, T/C",[34],58%
same,"viability, T/C",[35],64.5%
same,"viability, T/C",[36],49.9%
CCCS(=O)(=O)Nc1ccc(F)c(C(=O)c2c[nH]c3ncc(-c4ccc(Cl)cc4)cc23)c1F + Nc1ccc(C#CCN(C(=O)Cc2ncc(C(F)(F)F)cc2C(F)(F)F)c2ccc(F)cc2)nn1,IC50,second compound 0.0316 µM,8.52 µM
same,IC50,second compound 0.1 µM,8.88 µM
same,IC50,second compound 0.316 µM,8.62 µM
same,IC50,second compound 1 µM,8.35 µM
same,IC50,second compound 3.16 µM,9.38 µM
same,IC50,second compound 10 µM,> 10 µM
same,"viability, T/C",[1],101%
same,"viability, T/C",[2],113%
same,"viability, T/C",[3],118%
same,"viability, T/C",[4],167%
same,"viability, T/C",[5],167%
same,"viability, T/C",[6],36.3%
same,"viability, T/C",[7],109%
same,"viability, T/C",[8],117%
same,"viability, T/C",[9],119%
same,"viability, T/C",[10],143%
same,"viability, T/C",[11],188%
same,"viability, T/C",[12],40%
same,"viability, T/C",[13],111%
same,"viability, T/C",[14],113%
same,"viability, T/C",[15],132%
same,"viability, T/C",[16],175%
same,"viability, T/C",[17],184%
same,"viability, T/C",[18],36.2%
same,"viability, T/C",[19],96.2%
same,"viability, T/C",[20],116%
same,"viability, T/C",[21],119%
same,"viability, T/C",[22],133%
same,"viability, T/C",[23],166%
same,"viability, T/C",[24],35.8%
same,"viability, T/C",[25],114%
same,"viability, T/C",[26],123%
same,"viability, T/C",[27],124%
same,"viability, T/C",[28],163%
same,"viability, T/C",[29],179%
same,"viability, T/C",[30],44.5%
same,"viability, T/C",[31],124%
same,"viability, T/C",[32],128%
same,"viability, T/C",[33],131%
same,"viability, T/C",[34],161%
same,"viability, T/C",[35],192%
same,"viability, T/C",[36],52.9%
